Reference: paper PMC10408569, “Recruitment of hexahydroquinoline as anticancer scaffold targeting inhibition of wild and mutants EGFR (EGFR^WT, EGFR^T790M, and EGFR^L858R)” (Journal of Enzyme Inhibition and Medicinal Chemistry, 2023)

How the values were obtained:
HL-60(TB) = assay: NCI-60 anticancer screening (SRB); format: cell-based; conditions: Homo sapiens, leukemia, one dose 10 μM, read-out: Growth Inhibition Percentage (GI %)
K-562 = assay: NCI-60 anticancer screening (SRB); format: cell-based; conditions: Homo sapiens, K562; K-562, leukemia; one dose 10 μM; read-out: Growth Inhibition Percentage (GI %)
MOLT-4 = assay: NCI-60 anticancer screening (SRB); format: cell-based; conditions: Homo sapiens; MOLT-4, leukemia; one dose 10 μM; read-out: Growth Inhibition Percentage (GI %)
SR = assay: NCI-60 anticancer screening (SRB); format: cell-based; conditions: Homo sapiens, leukemia, one dose 10 μM, read-out: Growth Inhibition Percentage (GI %)
A549/ATCC = assay: NCI-60 anticancer screening (SRB); format: cell-based; conditions: Homo sapiens; A549/ATCC, NSC lung cancer; one dose 10 μM; read-out: Growth Inhibition Percentage (GI %)
EKVX = assay: NCI-60 anticancer screening (SRB); format: cell-based; conditions: Homo sapiens, NSC lung cancer, one dose 10 μM, read-out: Growth Inhibition Percentage (GI %)
HOP-62 = assay: NCI-60 anticancer screening (SRB); format: cell-based; conditions: Homo sapiens; HOP-62, NSC lung cancer; one dose 10 μM; read-out: Growth Inhibition Percentage (GI %)
HOP-92 = assay: NCI-60 anticancer screening (SRB); format: cell-based; conditions: Homo sapiens; HOP-92, NSC lung cancer; one dose 10 μM; read-out: Growth Inhibition Percentage (GI %)
NCI-H460 = assay: NCI-60 anticancer screening (SRB); format: cell-based; conditions: Homo sapiens; NCI-H460, NSC lung cancer; one dose 10 μM; read-out: Growth Inhibition Percentage (GI %)
HCT-15 = assay: NCI-60 anticancer screening (SRB); format: cell-based; conditions: Homo sapiens; HCT-15, colon cancer; one dose 10 μM; read-out: Growth Inhibition Percentage (GI %)
HT29 = assay: NCI-60 anticancer screening (SRB); format: cell-based; conditions: Homo sapiens, HT-29; HT29, colon cancer; one dose 10 μM; read-out: Growth Inhibition Percentage (GI %)
KM 12 = assay: NCI-60 anticancer screening (SRB); format: cell-based; conditions: Homo sapiens, KM12; KM 12, colon cancer; one dose 10 μM; read-out: Growth Inhibition Percentage (GI %)
SW-620 = assay: NCI-60 anticancer screening (SRB); format: cell-based; conditions: Homo sapiens; SW-620, colon cancer; one dose 10 μM; read-out: Growth Inhibition Percentage (GI %)
SNB-75 = assay: NCI-60 anticancer screening (SRB); format: cell-based; conditions: Homo sapiens; SNB-75, CNS cancer; one dose 10 μM; read-out: Growth Inhibition Percentage (GI %)
MALME-3M = assay: NCI-60 anticancer screening (SRB); format: cell-based; conditions: Homo sapiens, melanoma, one dose 10 μM, read-out: Growth Inhibition Percentage (GI %)
M14 = assay: NCI-60 anticancer screening (SRB); format: cell-based; conditions: Homo sapiens; M14, melanoma; one dose 10 μM; read-out: Growth Inhibition Percentage (GI %)
MDA-MB-435 = assay: NCI-60 anticancer screening (SRB); format: cell-based; conditions: Homo sapiens; MDA-MB-435, melanoma; one dose 10 μM; read-out: Growth Inhibition Percentage (GI %)
SK-MEL-28 = assay: NCI-60 anticancer screening (SRB); format: cell-based; conditions: Homo sapiens; SK-MEL-28, melanoma; one dose 10 μM; read-out: Growth Inhibition Percentage (GI %)
SK-MEL-5 = assay: NCI-60 anticancer screening (SRB); format: cell-based; conditions: Homo sapiens; SK-MEL-5, melanoma; one dose 10 μM; read-out: Growth Inhibition Percentage (GI %)
UACC-257 = assay: NCI-60 anticancer screening (SRB); format: cell-based; conditions: Homo sapiens; UACC-257, melanoma; one dose 10 μM; read-out: Growth Inhibition Percentage (GI %)
UACC-62 = assay: NCI-60 anticancer screening (SRB); format: cell-based; conditions: Homo sapiens; UACC-62, melanoma; one dose 10 μM; read-out: Growth Inhibition Percentage (GI %)
IGROV1 = assay: NCI-60 anticancer screening (SRB); format: cell-based; conditions: Homo sapiens, IGROV-1; IGROV1, ovarian cancer; one dose 10 μM; read-out: Growth Inhibition Percentage (GI %)
OVCAR-4 = assay: NCI-60 anticancer screening (SRB); format: cell-based; conditions: Homo sapiens; OVCAR-4, ovarian cancer; one dose 10 μM; read-out: Growth Inhibition Percentage (GI %)
OVCAR-8 = assay: NCI-60 anticancer screening (SRB); format: cell-based; conditions: Homo sapiens; OVCAR-8, ovarian cancer; one dose 10 μM; read-out: Growth Inhibition Percentage (GI %)
SK-OV-3 = assay: NCI-60 anticancer screening (SRB); format: cell-based; conditions: Homo sapiens; SK-OV-3, ovarian cancer; one dose 10 μM; read-out: Growth Inhibition Percentage (GI %)
786-0 = assay: NCI-60 anticancer screening (SRB); format: cell-based; conditions: Homo sapiens; 786-0, renal cancer; one dose 10 μM; read-out: Growth Inhibition Percentage (GI %)
A498 = assay: NCI-60 anticancer screening (SRB); format: cell-based; conditions: Homo sapiens; A498, renal cancer; one dose 10 μM; read-out: Growth Inhibition Percentage (GI %)
CAKI-1 = assay: NCI-60 anticancer screening (SRB); format: cell-based; conditions: Homo sapiens; CAKI-1, renal cancer; one dose 10 μM; read-out: Growth Inhibition Percentage (GI %)
PC-3 = assay: NCI-60 anticancer screening (SRB); format: cell-based; conditions: Homo sapiens; PC-3, prostate cancer; one dose 10 μM; read-out: Growth Inhibition Percentage (GI %)
MDA-MB-231 = assay: NCI-60 anticancer screening (SRB); format: cell-based; conditions: Homo sapiens; MDA-MB-231, breast cancer; one dose 10 μM; read-out: Growth Inhibition Percentage (GI %)
T-47D = assay: NCI-60 anticancer screening (SRB); format: cell-based; conditions: Homo sapiens, T47D, breast cancer, one dose 10 μM, read-out: Growth Inhibition Percentage (GI %)
NCI 60 cancer cell lines = assay: NCI-60 anticancer screening (SRB), whole panel; format: cell-based, human; conditions: mean across the NCI-60 panel; one dose 10 μM

| Structure (SMILES) | inhibition at 10 µM (HL-60(TB)) [%] | inhibition at 10 µM (K-562) [%] | inhibition at 10 µM (MOLT-4) [%] | inhibition at 10 µM (SR) [%] | inhibition at 10 µM (A549/ATCC) [%] | inhibition at 10 µM (EKVX) [%] | inhibition at 10 µM (HOP-62) [%] | inhibition at 10 µM (HOP-92) [%] | inhibition at 10 µM (NCI-H460) [%] | inhibition at 10 µM (HCT-15) [%] | inhibition at 10 µM (HT29) [%] | inhibition at 10 µM (KM 12) [%] | inhibition at 10 µM (SW-620) [%] | inhibition at 10 µM (SNB-75) [%] | inhibition at 10 µM (MALME-3M) [%] | inhibition at 10 µM (M14) [%] | inhibition at 10 µM (MDA-MB-435) [%] | inhibition at 10 µM (SK-MEL-28) [%] | inhibition at 10 µM (SK-MEL-5) [%] | inhibition at 10 µM (UACC-257) [%] | other results |
| --- | --- | --- | --- | --- | --- | --- | --- | --- | --- | --- | --- | --- | --- | --- | --- | --- | --- | --- | --- | --- | --- |
| CCOC(=O)C1=C(N)N(c2ccc(C)cc2)C2=C(C(=O)CC(C)(C)C2)C1c1ccccn1 (racemic) [12b, (±)-Ethyl 2-amino-7,7-dimethyl-1–(4-methylphenyl)-5-oxo-1-phenyl-4-(pyrdin-2-yl)-1,4,5,6,7,8-hexahydroquinoline-3-carboxylate] | < 10 | < 10 | < 10 | < 10 | < 10 | 19 | < 10 | < 10 | < 10 | < 10 | < 10 | < 10 | < 10 | 19 | < 10 | < 10 | < 10 | < 10 | 13 | < 10 | inhibition at 10 µM (UACC-62): 26%; inhibition at 10 µM (IGROV1): < 10%; inhibition at 10 µM (OVCAR-4): < 10%; inhibition at 10 µM (OVCAR-8): < 10%; inhibition at 10 µM (SK-OV-3): < 10%; inhibition at 10 µM (786-0): < 10%; inhibition at 10 µM (A498): < 10%; inhibition at 10 µM (CAKI-1): 16%; inhibition at 10 µM (PC-3): < 10%; inhibition at 10 µM (MDA-MB-231): 13%; inhibition at 10 µM (T-47D): < 10%; GI % mean (NCI 60 cancer cell lines): - ((-) = GI % mean less than 10); melting point: 196 to 198 °C |
| CCOC(=O)C1=C(N)N(c2ccc(Cl)cc2)C2=C(C(=O)CC(C)(C)C2)C1c1ccccn1 (racemic) [12c, (±)-Ethyl 2-amino-1–(4-chlorophenyl)-7,7-dimethyl-5-oxo-4-(pyridine-2-yl)-1,4,5,6,7,8-hexahydroquinoline-3-carboxylate] | < 10 | < 10 | < 10 | < 10 | < 10 | < 10 | < 10 | < 10 | < 10 | 12 | 22 | < 10 | < 10 | < 10 | < 10 | < 10 | < 10 | < 10 | 13 | < 10 | inhibition at 10 µM (UACC-62): 25%; inhibition at 10 µM (IGROV1): < 10%; inhibition at 10 µM (OVCAR-4): < 10%; inhibition at 10 µM (OVCAR-8): < 10%; inhibition at 10 µM (SK-OV-3): < 10%; inhibition at 10 µM (786-0): < 10%; inhibition at 10 µM (A498): < 10%; inhibition at 10 µM (CAKI-1): 11%; inhibition at 10 µM (PC-3): 19%; inhibition at 10 µM (MDA-MB-231): < 10%; inhibition at 10 µM (T-47D): < 10%; GI % mean (NCI 60 cancer cell lines): - ((-) = GI % mean less than 10); melting point: 256 to 258 °C |
